Measurements: DBAASP
≈ marks a conversion by molar mass, not a printed value. Where “and” joins values, the source holds several entries; their conditions need not be identical. Equal values may be shown once.

What was measured:
Assay in all cases: ≥ marks a high value that may be exact or a test limit, other limits are often not marked, values filed in µg/mL are converted to µM
[1] = test system: Pseudomonas aeruginosa ATCC 27857
[2] = test system: Candida glabrata DSM 11226
Candida krusei DSM 6128 = test system: Candida krusei DSM 6128
[3] = test system: Escherichia coli ATCC 25922
[4] = test system: Staphylococcus aureus ATCC 25923
[5] = test system: Candida albicans ATCC 10231
Candida tropicalis = test system: Candida tropicalis
[6] = test system: Staphylococcus epidermidis ATCC 12228
Bacillus cereus PCM 2003 = test system: Bacillus cereus PCM 2003
[7] = test system: Pseudomonas aeruginosa ATCC 27853
[8] = test system: Klebsiella pneumoniae ATCC 700603
[9] = test system: Bacillus subtilis ATCC 23857
[10] = test system: Acinetobacter baumannii 97830
[11] = test system: Staphylococcus aureus 113
Staphylococcus aureus 75 = test system: Staphylococcus aureus 75
[12] = test system: Staphylococcus aureus ATCC 29213
Escherichia coli 804 = test system: Escherichia coli 804
[13] = test system: Acinetobacter baumannii ATCC 19606
Escherichia coli 780 = test system: Escherichia coli 780
[14] = test system: Acinetobacter baumannii 9931
[15] = test system: Pseudomonas aeruginosa ATCC 9027
[16] = test system: Pseudomonas aeruginosa 73
[17] = test system: Pseudomonas aeruginosa 50
[18] = test system: Pseudomonas aeruginosa 3552
[19] = test system: Staphylococcus epidermidis C621
[20] = test system: Pseudomonas aeruginosa Z61
[21] = test system: Aeromonas salmonicida 99-1
[22] = test system: Aeromonas salmonicida A449
[23] = test system: Salmonella enterica serovar typhimurium MS7953s
Escherichia coli DC2 = test system: Escherichia coli DC2
Candida albicans C627 = test system: Candida albicans C627
[24] = test system: Salmonella enterica subsp. enterica serovar Typhimurium ATCC 14028s
[25] = test system: Staphylococcus aureus C623
Escherichia coli UB1005 = test system: Escherichia coli UB1005
[26] = test system: Aeromonas salmonicida 97-4
[27] = test system: Pseudomonas aeruginosa K799
[28] = test system: Escherichia coli CGSC 4908

CSCC[C@H](NC(=O)[C@H](C)NC(=O)[C@H](CCCN=C(N)N)NC(=O)[C@H](CCCCN)NC(=O)[C@H](Cc1c[nH]c2ccccc12)NC(=O)[C@H](CCC(N)=O)NC(=O)[C@H](Cc1ccccc1)NC(=O)[C@@H](N)CS)C(=O)N[C@@H](CCCN=C(N)N)C(=O)N[C@@H](CCCCN)C(=O)N[C@H](C(=O)N[C@@H](CCCN=C(N)N)C(N)=O)C(C)C [CFQWKRAMRKVR]
MIC [1]: ≥ 77.7 µM | MIC [2]: ≥ 155 µM | MIC (Candida krusei DSM 6128): ≥ 155 µM | MIC [3]: 9.94 µM (≈ 16 µg/mL) | MIC [4]: 39.2 µM (≈ 63 µg/mL) | MIC [5]: > 155 µM | MIC (Candida tropicalis): ≥ 155 µM | MIC [6]: 2.49 µM (≈ 4 µg/mL) | MIC (Bacillus cereus PCM 2003): ≥ 155 µM

NC(=O)[C@H](Cc1ccccc1)NC(=O)[C@H](Cc1c[nH]c2ccccc12)NC(=O)[C@H](CCCN=C(N)N)NC(=O)[C@H](Cc1c[nH]c2ccccc12)NC(=O)[C@H](Cc1c[nH]c2ccccc12)NC(=O)[C@H](Cc1c[nH]c2ccccc12)NC(=O)[C@H](CCCN=C(N)N)NC(=O)[C@H](Cc1c[nH]c2ccccc12)NC(=O)[C@@H](N)Cc1ccccc1 [FWRWWWRWF]
MIC [7]: > 128 µM | MIC [8]: 16 µM (≈ 24.9 µg/mL) | MIC [9]: 2 µM (≈ 3.11 µg/mL) | MIC [10]: ≥ 32 µM | MIC [11]: 8 µM (≈ 12.4 µg/mL) | MIC (Staphylococcus aureus 75): 8 µM (≈ 12.4 µg/mL) | MIC [12]: 4 µM (≈ 6.22 µg/mL) | MIC (Escherichia coli 804): ≥ 64 µM | MIC [13]: 64 µM (≈ 99.5 µg/mL) | MIC (Escherichia coli 780): ≥ 32 µM | MIC [14]: ≥ 32 µM | MIC [6]: 4 µM (≈ 6.22 µg/mL) | MIC [15]: 128 µM (≈ 199 µg/mL) | MIC [16]: ≥ 128 µM | MIC [17]: ≥ 128 µM

CC[C@H](C)[C@H](NC(=O)CNC(=O)[C@@H](NC(=O)[C@H](Cc1cnc[nH]1)NC(=O)[C@H](CCCCN)NC(=O)[C@H](CCCCN)NC(=O)[C@H](CC(C)C)NC(=O)[C@H](CCCCN)NC(=O)[C@H](Cc1c[nH]c2ccccc12)NC(=O)[C@@H](N)CCCCN)[C@@H](C)CC)C(=O)NCC(=O)N[C@@H](CCCCN)C(=O)N[C@@H](Cc1cnc[nH]1)C(=O)N[C@@H](Cc1ccccc1)C(=O)N[C@@H](CC(C)C)C(=O)N[C@@H](CO)C(=O)N[C@@H](C)C(=O)N[C@@H](CCCCN)C(=O)N[C@@H](CCCCN)C(=O)N[C@@H](Cc1ccccc1)C(N)=O [KWKLKKHIGIGKHFLSAKKF]
MIC [18]: 8 µM and 4 µM

CC[C@H](C)[C@H](NC(=O)[C@H](CO)NC(=O)[C@H](CCCCN)NC(=O)[C@@H](NC(=O)[C@@H](NC(=O)[C@H](CC(=O)O)NC(=O)[C@H](CCC(=O)O)NC(=O)[C@@H](NC(=O)[C@H](CO)NC(=O)[C@@H](N)CCCNC(=N)N)[C@@H](C)O)[C@@H](C)CC)[C@@H](C)CC)C(=O)N[C@@H](CO)C(=O)NCC(=O)NCC(=O)NCC(=O)N[C@@H](Cc1ccccc1)C(=O)N[C@@H](CC(C)C)C(=O)N[C@@H](CC(N)=O)C(=O)N[C@@H](C)C(=O)N[C@@H](CCSC)C(=O)N[C@@H](CC(N)=O)C(=O)N[C@@H](C)C(C)=O [RSTEDIIKSISGGGFLNAMNA]
MIC [19]: 29.3 µM (≈ 63.9 µg/mL) | MIC [20]: 29.3 µM (≈ 63.9 µg/mL) | MIC [21]: 29.3 µM (≈ 63.9 µg/mL) | MIC [22]: 29.3 µM (≈ 63.9 µg/mL) | MIC [23]: 29.3 µM (≈ 63.9 µg/mL) | MIC (Escherichia coli DC2): 29.3 µM (≈ 63.9 µg/mL) | MIC (Candida albicans C627): 29.3 µM (≈ 63.9 µg/mL) | MIC [24]: 29.3 µM (≈ 63.9 µg/mL) | MIC [25]: 29.3 µM (≈ 63.9 µg/mL) | MIC (Escherichia coli UB1005): 29.3 µM (≈ 63.9 µg/mL) | MIC [26]: 29.3 µM (≈ 63.9 µg/mL) | MIC [27]: 29.3 µM (≈ 63.9 µg/mL) | MIC [28]: 29.3 µM (≈ 63.9 µg/mL)
